Measured values published in patent EP0639978B1, “PHARMACEUTICAL COMBINATION HAVING ANTINEOPLASTIC ACTIVITY” (priority 1991, dated 1992).
Where a name gives a salt, the structure may show the parent alone.

Legend:
P388 leukemia = assay: Therapeutic activity in P388 leukemia treatment (survival); type: in vivo, BDFl female mice; settings: for ILS (%): survival increase vs untreated controls
Experimental: The following tables and the enclosed figures refer to experiments carried out on BDFl mice inoculated with P388 leukemic cells and wherein the effect of DDP-Pd.HCl combination is compared, in terms of toxicity and therapeutic efficacy, with the one of the different components. From Pd-HCl toxicity results, which are reported in Table 1, the 50 mg/kg of Pd.HCl dose was selected for the investigations suited for the evaluation of DDP-Pd.HCl combination toxicity and therapeutic efficacy.

[1] = test system: kidneys of P388 leukemic BDFl mice; assay: Histological evaluation of renal damage; type: in vivo
Experimental: Stromal connective, wherein rare and scattered fibroblasts were detected, appeared remarkably thickened with resulting intertubular space increase. Renal corpuscle morphology appeared in a good preservation state in the components thereof and a slight increase of the glomerular chamber was recognized in few corpuscles only.
Immediately after withdrawal, renal parenchyma was fixed with 2.5% glutaraldehyde in 0.1 M Na cacodylate buffer (pH = 7.4) for 120 min.
After washing in the same buffer, the samples were dehydrated with ethanol and embedded in Epon 812. LKB Ultratom III microtome 2 µm sections were stained with aqueous 1% toluidine blue.

[2] = Pd.HCl 50 mg/kg in H2O i.v., no DDP
[3] = DDP 8 mg/kg i.p. days 1 and 5, vehicle H2O
[4] = DDP 16 mg/kg i.p. day 1, vehicle 0,9% NaCl
[5] = DDP 16 mg/kg i.p. day 1, vehicle H2O

Row | SMILES | MST (P388 leukemia; [2]) [days] | Survivors on day 60 (alive/treated) (P388 leukemia; [2]) | ILS (%) (P388 leukemia; [2]) | antitumor activity (P388 leukemia; procainamide by itself) | Hystological evaluation of renal damage ([1]; mouse, in vivo, 50 mg/kg) | Survivors on day 60 (alive/treated) (P388 leukemia; [3]) | MST (P388 leukemia; DDP 8 mg/kg i.p. days 1 and 5, vehicle H2O, median survival time, untreated controls 12 days) [days] | ILS (%) (P388 leukemia; [3]) | Survivors on day 60 (alive/treated) (P388 leukemia; [4]) | MST (P388 leukemia; DDP 16 mg/kg i.p. day 1, vehicle 0,9% NaCl, median survival time, untreated controls 12 days) [days] | ILS (%) (P388 leukemia; [4]) | Survivors on day 60 (alive/treated) (P388 leukemia; [5]) | MST (P388 leukemia; DDP 16 mg/kg i.p. day 1, vehicle H2O, median survival time, untreated controls 12 days) [days] | ILS (%) (P388 leukemia; [5]) | Hystological evaluation of renal damage ([1]; 8 mg/kg of DDP alone at days 1, 5 and 9, mice killed the 10th day, cortical zone)
1 | CCN(CC)CCNC(=O)c1ccc(N)cc1 [Pd.HCl, procainamide hydrochloride] | 13 | 0/8 | 8,3% | no antitumor activity | a picture similar to the one observed with DDP only |  |  |  |  |  |  |  |  |  | 
2 | N.N.[Cl][Pt][Cl] [DDP, Cisplatin] |  |  |  |  |  | 0/8 | 7 | -42 | 2/10 | 22 | 83 | 0/10 | 5 | -58 | renal parenchyma alterations
